Results reported in PMC4216204 (Journal of Medicinal Chemistry, 2014).

Assays:
[1] = tested on: CRL-2351 breast cancer cells; test: Sulforhodamine B; assay type: cell-based; settings: Homo sapiens, 120 h, read-out: SRB assay IC50 CRL-2351
xenograft tumor = settings: mouse model of human cancer; cited from earlier work
AML progenitors = settings: ref 23 (Tamburini et al.); cited from earlier work

Row | Compound | IC50 [1] [µM] | inhibition of xenograft tumor growth (xenograft tumor) | clonogenic growth of AML progenitors (AML progenitors)
1 | COc1cc2c(cc1OC)-c1nc(N/N=C(\Cc3ccccc3[N+](=O)[O-])C(=O)O)sc1CO2 [(E)-46a, 2-(2-(7,8-Dimethoxy-4H-chromeno[4,3-d]thiazol-2-yl)hydrazono)-3-(2-nitrophenyl)propanoic Acid] | > 20 | – | –
2 | COc1ccc2c(c1OC)OCc1sc(N/N=C(\Cc3ccccc3[N+](=O)[O-])C(=O)O)nc1-2 [(E)-46b, 2-(2-(6,7-Dimethoxy-4H-chromeno[4,3-d]thiazol-2-yl)hydrazono)-3-(2-nitrophenyl)propanoic Acid] | > 20 | – | –
3 | COc1cc2c(cc1OC)-c1nc(N/N=C(\Cc3ccccc3[N+](=O)[O-])C(=O)O)sc1CC2 [(E)-46c, 2-(2-(7,8-Dimethoxy-4,5-dihydronaphtho[1,2-d]thiazol-2-yl)hydrazono)-3-(2-nitrophenyl)propanoic Acid] | > 20 | – | –
4 | COc1cc2c(cc1OC)-c1nc(N/N=C(/Cc3ccccc3[N+](=O)[O-])C(=O)O)sc1CO2 [(Z)-46a, 2-(2-(7,8-Dimethoxy-4H-chromeno[4,3-d]thiazol-2-yl)hydrazono)-3-(2-nitrophenyl)propanoic Acid] | > 20 | – | –
5 | COc1ccc2c(c1OC)OCc1sc(N/N=C(/Cc3ccccc3[N+](=O)[O-])C(=O)O)nc1-2 [(Z)-46b, 2-(2-(6,7-Dimethoxy-4H-chromeno[4,3-d]thiazol-2-yl)hydrazono)-3-(2-nitrophenyl)propanoic Acid] | > 20 | – | –
6 | COc1cc2c(cc1OC)-c1nc(N/N=C(/Cc3ccccc3[N+](=O)[O-])C(=O)O)sc1CC2 [(Z)-46c, 2-(2-(7,8-Dimethoxy-4,5-dihydronaphtho[1,2-d]thiazol-2-yl)hydrazono)-3-(2-nitrophenyl)propanoic Acid] | > 20 | – | –
7 | O=C(O)C(Cc1ccccc1[N+](=O)[O-])=NNc1nc(-c2ccc(Cl)c(Cl)c2)cs1 [compound 1, (2-(2-(4-(3,4-dichlorophenyl)thiazol-2-yl)hydrazono)-3-(2-nitrophenyl)propanoic acid)] | – | effectively inhibits xenograft tumor growth | dramatically reduces the clonogenic growth of AML progenitors
